Experimental data as given in PubChem BioAssay (NCI).
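Dose response: 5 concentrations. Exposure: 48 h. Format: 96-well plates. Endpoint: linear interpolation; highest concentration if not reached. Abbreviation: GI50, concentration required for 50% inhibition of growth. At the TGI there is no net growth.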

Columns and labels:
Assay in all cases: inhibition of tumour cell growth, NCI panel, 48 h
[1] = tested on: RPMI-8226 leukemia
[2] = tested on: A549 NSCLC
[3] = tested on: HCT-116 colon
[4] = tested on: OVCAR-4 ovarian
[5] = tested on: EKVX NSCLC
[6] = tested on: SK-MEL-28 melanoma
[7] = tested on: MDA-MB-231 breast
[8] = tested on: SW-620 colon
[9] = tested on: U251 CNS
[10] = tested on: MDA-MB-435

| Structure (SMILES) | GI50 [1] | TGI [1] | GI50 [2] | TGI [2] | GI50 [3] | TGI [3] | GI50 [4] | TGI [4] | GI50 [5] | TGI [5] | GI50 [6] | TGI [6] | GI50 [7] | TGI [7] | GI50 [8] | TGI [8] | GI50 [9] | TGI [9] | GI50 [10] | TGI [10] |
| --- | --- | --- | --- | --- | --- | --- | --- | --- | --- | --- | --- | --- | --- | --- | --- | --- | --- | --- | --- | --- |
| COc1ccc2nc(-c3ccccc3)cc(Nc3ccc(/C(C)=N/O)cc3)c2c1 | 2.16 µM | 7.06 µM | 3.42 µM | 32 µM | 1.52 µM | 2.85 µM | 3.9 µM | > 100 µM | 3.02 µM | > 100 µM | 3.13 µM | > 100 µM | 0.733 µM | 2.07 µM | 2.72 µM | > 22.1 µM | 6.7 µM | > 67.1 µM | 3.4 µM | – |
| N/C(=N\OC(=O)NC(Cl)=C(Cl)Cl)c1cc(C(F)(F)F)cc(C(F)(F)F)c1 | – | 34.8 µM | – | 30.4 µM | – | 35.5 µM | – | – | – | 27 µM | – | 32.8 µM | – | 34.2 µM | – | 40.3 µM | – | 31.3 µM | – | 48.5 µM |
| COc1ccc(-c2nnc3n(C)c(=O)c4ccccc4n23)cc1O | 5.01 µM | > 100 µM | 2.29 µM | > 100 µM | 0.161 µM | > 50.3 µM | 4.32 µM | > 100 µM | 14.1 µM | > 100 µM | 12.2 µM | > 100 µM | 2.29 µM | 31.7 µM | 0.149 µM | > 100 µM | 0.263 µM | 20.8 µM | 0.065 µM | 0.221 µM |
| COc1ccc(N2CCN(CC(=O)N3CCN(c4nnc(-c5ccccc5)c(-c5ccccc5)n4)CC3)CC2)cc1 | 3.98 µM | 31.1 µM | 16.2 µM | > 100 µM | 3.96 µM | 38.6 µM | 3.61 µM | > 100 µM | 4.47 µM | > 100 µM | 11.9 µM | > 100 µM | 65.3 µM | > 100 µM | 10.4 µM | > 100 µM | 6.43 µM | > 100 µM | 5.48 µM | > 100 µM |
| COc1cc2c(cc1OCCCCCCNC(=O)c1cc3ccccc3[nH]1)N=CC1CCCN1C2=O (stereo unspecified) | 18.7 µM | 77.6 µM | 39 µM | > 100 µM | 45.6 µM | > 100 µM | 89.4 µM | > 100 µM | 14.4 µM | 65.4 µM | > 100 µM | > 100 µM | 20.9 µM | 79.1 µM | 38.6 µM | > 100 µM | 40 µM | > 100 µM | 39.3 µM | > 100 µM |
| COC(=O)C1CC2(c3ccc(C)cc3)C(c3ccc(C)cc3)=C(c3ccc(C)cc3)C1(c1ccc(C)cc1)S2=O (stereo unspecified) | > 100 µM | > 100 µM | > 100 µM | > 100 µM | 73.2 µM | > 100 µM | 22.5 µM | 81.2 µM | > 100 µM | > 100 µM | > 100 µM | > 100 µM | > 100 µM | > 100 µM | > 100 µM | > 100 µM | 65.1 µM | > 100 µM | > 100 µM | > 100 µM |
| c1ccc(-c2n(Cc3ccc4ccccc4n3)c3ccccc3[n+]2Cc2ccc3ccccc3n2)cc1 | 0.0936 µM | 0.845 µM | 0.346 µM | 2.06 µM | 0.247 µM | 1.19 µM | 0.238 µM | 1.82 µM | 0.693 µM | 4.27 µM | 0.359 µM | 1.44 µM | 0.269 µM | 1.3 µM | 0.359 µM | 1.69 µM | 0.243 µM | 1.19 µM | 0.337 µM | 1.22 µM |
| Cc1cc(C)cc(Nc2nccc(-c3c(-c4ccc(F)cc4)ncn3C3CCNCC3)n2)c1 | 2.07 µM | 5.18 µM | 1.09 µM | 3.16 µM | 1.13 µM | 2.36 µM | 1.49 µM | 3.46 µM | 1.4 µM | 3.19 µM | 1.78 µM | 3.26 µM | 1.5 µM | 3.09 µM | 1.44 µM | 3.07 µM | 1.65 µM | 3.25 µM | 0.767 µM | 2.09 µM |
| COc1cc(C(=O)/C=C/c2c(-c3ccc(F)cc3)nc3sccn23)cc(OC)c1OC | 2.59 µM | 44.6 µM | 2.54 µM | > 21.1 µM | 2.31 µM | 8.75 µM | 3.27 µM | 38.1 µM | 3.03 µM | > 100 µM | 4.84 µM | 17.2 µM | 2.34 µM | > 29.8 µM | 2.92 µM | 11.2 µM | 2.41 µM | 9.23 µM | 2.13 µM | 7.92 µM |
| O=C(Cc1ccc(/C=C/C(=O)c2ncc[nH]2)cc1)Nc1ccc(Br)cc1 | 0.705 µM | 4.06 µM | 6.06 µM | > 16.7 µM | 0.847 µM | 2.54 µM | 3.42 µM | > 16.7 µM | 4.58 µM | > 16.7 µM | 3.07 µM | 6.65 µM | 3.97 µM | 13.4 µM | 0.873 µM | 4.49 µM | 0.704 µM | 2.56 µM | 3.7 µM | 15.6 µM |
| N#Cc1cc2cc3c4c(c2oc1=O)CCCN4CCC3 | – | > 100 µM | – | > 100 µM | – | > 100 µM | – | > 100 µM | – | > 100 µM | – | > 100 µM | – | > 100 µM | – | > 100 µM | – | > 100 µM | – | > 100 µM |
| CC(=O)NNC(=O)c1nn(-c2ccc(Cl)cc2)cc1OC(C)=O | 12.1 µM | 64.3 µM | 18.8 µM | > 100 µM | 14.6 µM | > 100 µM | 79.6 µM | > 100 µM | 23.7 µM | > 100 µM | > 56.7 µM | > 100 µM | 23.7 µM | > 87.4 µM | 23.6 µM | > 100 µM | 11.8 µM | > 100 µM | 30.3 µM | > 100 µM |
| O=C1C[C@@H](c2ccccc2)NCCCCN(O)CCCN1 | – | > 100 µM | – | > 100 µM | – | > 100 µM | – | > 100 µM | – | > 100 µM | – | > 100 µM | – | > 100 µM | – | > 100 µM | – | > 100 µM | – | > 100 µM |
| Cn1cc(-c2csc(-c3cn(CCN4CCOCC4)c4ccc(F)cc34)n2)c2cccnc21 | 1.68 µM | 4.96 µM | 3.18 µM | 17.5 µM | 3 µM | 10.2 µM | – | – | 2.52 µM | 26.6 µM | 3.01 µM | 12.3 µM | 2.51 µM | 8.48 µM | 3.62 µM | 57.5 µM | 3.35 µM | 22.2 µM | 2.77 µM | 10.5 µM |
